Counter-ions that a name gives are not always drawn. Like-named read-outs stand apart in the source and are kept apart here.
Experiments:
[1] = test system: SARS-CoV-2; assay: microbe, parasite or virus in culture; assay type: cell-based; conditions: for HeLa-ACE2 CoV-2 Sinf Average: curve-fit effect at infinite concentration; for Emax: Severe acute respiratory syndrome coronavirus 2, HeLa-ACE2, 24 h, read-out: HeLa-ACE2 CoV-2 Sinf Average
[2] = Uninfected HeLa-ACE2 24 h live/dead cytotoxicity counter screen; assay type: cell-based, human; conditions: human, uninfected HeLa-ACE2 cells
[3] = test system: HeLa-ACE2 cells; assay: as above; assay type: cell-based, human; conditions: for CC50: read-out: HeLa-ACE2 uninfected cytotoxicity CC50 GeoMean
[4] = test system: SARS-CoV-2; assay: microbe, parasite or virus in culture; assay type: cell-based; conditions: for Emax: Severe acute respiratory syndrome coronavirus 2, Calu-3, 48 h; for Calu-3 CoV-2 Sinf Average: curve-fit effect at infinite concentration
[5] = test system: HeLa-ACE2 cells; conditions: for HeLa-ACE2 cell count Sinf Average: curve-fit effect at infinite concentration; for EC50: read-out: HeLa-ACE2 cell count EC50 GeoMean, unrounded geometric mean
[6] = test system: Calu-3 cells
[7] = test system: HeLa-ACE2 cells; assay: cells; conditions: Homo sapiens
[8] = test system: Calu-3 cells; assay: cells; conditions: Homo sapiens
[9] = in vitro; conditions: human, Calu-3 uninfected cytotoxicity CC50 GeoMean (µM)
[10] = test system: Calu-3 cells; conditions: for Calu-3 cell count Sinf Average: curve-fit effect at infinite concentration; for EC50: read-out: Calu-3 cell count EC50 GeoMean
[11] = test system: Calu-3 cells; assay: Uninfected Calu-3 48 h Cell-Titer Glo cytotoxicity counter screen
[12] = test system: SARS-CoV-2; assay: microbe, parasite or virus in culture; assay type: cell-based; conditions: for EC50: read-out: HeLa-ACE2 TOA CoV-2 EC50 GeoMean
[13] = test system: SARS-CoV-2; assay type: cell-based
[14] = test system: HeLa-ACE2 cells; assay: Total cell count in the HeLa-ACE2 TOA assay; assay type: cell-based; conditions: Homo sapiens, HeLa-ACE2, read-out: HeLa-ACE2 TOA cell count EC50 GeoMean
Source text: Supplement 41467_2021_23328_MOESM3_ESM.xlsx, sheet "Table S1" | column: HeLa-ACE2 TOA cell count

[15] = test system: HepG2; conditions: human, 72 h
[16] = test system: HEK293T; conditions: human, 72 h
[17] = test system: HeLa-ACE2 cells; assay: Total cell count in the HeLa-ACE2 TOA (time of addition) assay; assay type: cell-based, human; conditions: Homo sapiens, HeLa-ACE2; read-out: HeLa-ACE2 TOA cell count EC50 GeoMean
[18] = ref [33]-[49], cited from earlier work
[19] = HepG2 72 h CellTiter-Glo cytotoxicity; conditions: human, HepG2 cells
[20] = test system: HepG2; assay: HepG2 72 h CellTiter-Glo cytotoxicity; conditions: 72 h
[21] = HEK293T 72 h CellTiter-Glo cytotoxicity; conditions: human, HEK293T cells
[22] = test system: HEK293T; assay: HEK293T 72 h CellTiter-Glo cytotoxicity; conditions: 72 h
[23] = Uninfected Calu-3 48 h Cell-Titer Glo cytotoxicity counter screen; conditions: human, uninfected Calu-3 cells
[24] = unrounded geometric mean, read-out: HeLa-ACE2 CoV-2 EC50 GeoMean
[25] = curve-fit effect at infinite concentration, average
[26] = unrounded geometric mean, read-out: Calu-3 CoV-2 EC50 GeoMean
[27] = curve plateau at infinite concentration

## CC/C(=C(/c1ccc(/C=C/C(=O)O)cc1)c1ccc2[nH]ncc2c1)c1ccc(F)cc1Cl [ARN-810]
[1]; Severe acute respiratory syndrome coronavirus 2, HeLa-ACE2, geometric mean of replicates, read-out: HeLa-ACE2 CoV-2 EC50 GeoMean
  EC50: > 9.59 µM
[2]; geometric mean of replicates, read-out: HeLa-ACE2 uninfected cytotoxicity CC50 GeoMean
  CC50 at 24 h: 11 µM
[3]; Sinf average of the curves
  HeLa-ACE2 uninfected cytotoxicity Sinf Average (%): -99%
[4]; Sinf average of the curves, read-out: Calu-3 CoV-2 Sinf Average (%)
  Emax: 71%
[4]; Severe acute respiratory syndrome coronavirus 2, Calu-3, geometric mean of replicates, read-out: Calu-3 CoV-2 EC50 GeoMean
  EC50: 1.1 µM
[5]; Sinf average of the curves
  HeLa-ACE2 cell count Sinf Average (%): -100%
[6]
  uninfected Calu-3 CC50 [μM]: > 23.843 ×÷ 1.22 (n=3) μM
[6]; human, 48 h
  Calu-3 uninfected cytotoxicity Sinf Average (%): -89%
[7]; HeLa-ACE2, read-out: HeLa-ACE2 cell count EC50 GeoMean (µM), geometric mean of replicates
  EC50: > 9.59 µM
[8]; Calu-3, 48 h, read-out: Calu-3 cell count Sinf Average (%)
  Emax: 79%
[8]; Calu-3, read-out: Calu-3 cell count EC50 GeoMean (µM), geometric mean of replicates
  EC50: > 3.06 µM
[9]
  CC50 at 48 h: > 23.8 µM

## COc1ccc(C[C@H]2NC[C@H](O)[C@H]2OC(C)=O)cc1 [Anisomycin]
[1]
  HeLa-ACE2 CoV-2 Sinf Average: -102%
[1]; [24]
  EC50: 0.0664 µM
[3]; [25]
  HeLa-ACE2 uninfected cytotoxicity Sinf Average: -98%
[4]
  Calu-3 CoV-2 Sinf Average: -98%
[4]; [26]
  EC50: 0.127 µM
[5]
  HeLa-ACE2 cell count Sinf Average: -103%
  EC50: 0.636 µM
[10]
  Calu-3 cell count Sinf Average: 37%
[10]; unrounded geometric mean
  EC50: > 2.46 µM
[11]; [25]
  Calu-3 uninfected cytotoxicity Sinf Average: -66%

## Cc1cccc(/C=N/Nc2cc(N3CCOCC3)nc(OCCc3ccccn3)n2)c1 [Apilimod - control]
[1]; [27]
  Emax: 95%
[1]; read-out: HeLa-ACE2 CoV-2 EC50 GeoMean
  EC50: 0.011 µM
[3]; [27]
  HeLa-ACE2 uninfected cytotoxicity Sinf Average: -100%
[3]
  CC50: > 11.5 µM
[4]; read-out: Calu-3 CoV-2 EC50 GeoMean
  EC50: 1.87 µM
[12]
  EC50: > 2.4 µM
[13]; combination with remdesivir, synergy score δ
  HeLa-ACE2 synergy score with remdesivi [δ]: 3.568
[14]
  EC50: > 2.4 µM
[10]
  EC50: > 2.5 µM
[15]
  HepG2 72-hour cytotoxicity Sinf Average: -69%
[16]
  HEK293T 72-hour cytotoxicty Sinf Average: -79%

## CCCCN(CCCC)CCC(O)c1cc2c(Cl)cc(Cl)cc2c2cc(C(F)(F)F)ccc12 (stereo not shown) [Halofantrine HCl]
[1]
  Emax: 100%
[1]; Severe acute respiratory syndrome coronavirus 2, HeLa-ACE2, detail column, read-out: HeLa-ACE2 CoV-2 EC50 GeoMean
  EC50: 1.16 µM
[1]; Severe acute respiratory syndrome coronavirus 2, HeLa-ACE2, reconfirmed hits, read-out: HeLa-ACE2 SARS-CoV-2 EC50
  EC50: 0.33 µM
[1]; selectivity index, uninfected HeLa-ACE2 CC50 / SARS-CoV-2 EC50
  HeLa-ACE2 SI: > 20.66
[2]; reconfirmed hits, read-out: HeLa-ACE2 Uninf. cells CC50
  CC50 at 24 h: 18.7 µM
[2]; read-out: HeLa-ACE2 uninfected cytotoxicity CC50 GeoMean
  CC50 at 24 h: > 23.9 µM
[3]; human, uninfected HeLa-ACE2 cells, 24 h
  HeLa-ACE2 uninfected cytotoxicity Sinf Average: -100%
[4]; read-out: Calu-3 CoV-2 Sinf Average
  Emax: 100%
[4]; Severe acute respiratory syndrome coronavirus 2, Calu-3, reconfirmed hits, read-out: Calu-3 SARS-CoV-2 EC50
  EC50: > 8.47 µM
[4]; selectivity index, uninfected Calu-3 CC50 / SARS-CoV-2 EC50
  Calu-3 SI: > 2.67
[12]
  TOA:HeLa-ACE2 EC50 Ratio: 3.833
[12]; Severe acute respiratory syndrome coronavirus 2, HeLa-ACE2, 10 h, read-out: HeLa-ACE2 TOA CoV-2 Sinf Average
  Emax: 100%
[12]; Severe acute respiratory syndrome coronavirus 2, HeLa-ACE2
  EC50: 4.44 µM
[13]; HeLa-ACE2
  Synergy score with remdesivir (δ): −3.51
[13]; combination with remdesivir
  HeLa-ACE2 synergy score with remdesivi: -3.509 δ
[17]
  EC50: > 9.61 µM
[7]; HeLa-ACE2, 24 h, read-out: HeLa-ACE2 cell count Sinf Average
  Emax: -39%
[7]; HeLa-ACE2, read-out: HeLa-ACE2 cell count EC50 GeoMean
  EC50: > 6.19 µM
[8]; Calu-3, read-out: Calu-3 cell count EC50 GeoMean
  EC50: > 9.98 µM
[18]; human
  Approx. t1/2: 58 h
[18]; read-out: Approx. Cmax, human oral
  Cmax: 1000 nM
[19]
  CC50 at 72 h: 30.5 µM
[20]
  HepG2 72-hour cytotoxicity Sinf Average: -100%
[21]
  CC50 at 72 h: 25.8 µM
[22]
  HEK293T 72-hour cytotoxicty Sinf Average: -100%
[23]; Calu-3 Uninf. cells CC50 (µM), reconfirmed hits
  CC50 at 48 h: > 22.6 µM
[23]; Calu-3 uninfected cytotoxicity CC50 GeoMean
  CC50 at 48 h: > 22.6 µM
[11]; human, uninfected Calu-3 cells, 48 h
  Calu-3 uninfected cytotoxicity Sinf Average: -100%

## NS(=O)(=O)c1ccc(N2N=C(C(F)(F)F)CC2c2c[nH]c3c(Cl)cccc23)cc1 (stereo not shown) [ON-09310]
[1]
  HeLa-ACE2 CoV-2 Sinf Average: -100%
[1]; [24]
  EC50: 3.72 µM
[3]; [25]
  HeLa-ACE2 uninfected cytotoxicity Sinf Average: -103%
[3]; unrounded geometric mean
  CC50: 8.2 µM
[4]
  Calu-3 CoV-2 Sinf Average: -95%
[4]; [26]
  EC50: 1.81 µM
[5]
  HeLa-ACE2 cell count Sinf Average: -100%
  EC50: > 9.33 µM
[10]
  Calu-3 cell count Sinf Average: 100%
[10]; unrounded geometric mean
  EC50: > 8.32 µM
[11]; [25]
  Calu-3 uninfected cytotoxicity Sinf Average: -97%
[11]; read-out: Calu-3 uninfected cytotoxicity CC50 GeoMean, unrounded geometric mean
  CC50: 16.9 µM

From paper PMC8175350, “Drug repurposing screens identify chemical entities for the development of COVID-19 interventions” (Nature Communications, 2021)
